Experimental data as given in patent US20180094248A1, “Necroptosis Signaling as a Therapeutic Target for Alzheimer's Disease” (Arizona Board of Regents on behalf of Arizona State …, priority 2016, published 2018).

Tests used:
[1] = system: primary cortical neurons from APP/PS1 mice; experiment: NeuN count of APP/PS1 primary cortical neurons treated with Nec-1S or vehicle; type: cell-based, mouse
Method: (§1) To probe for a direct link between necroptosis and neuronal loss in AD, we plated primary cortical neurons from APP/PS1 and wild type littermate mice. After seven days in vitro (DIV), neurons were treated with 10 μM of the necroptosis inhibitor 7-Cl-O-necrostatin (Nec15) or vehicle. Treatment was repeated at DIV 11. We then fixed neurons at DIV 11 and 15, and stained them for NeuN to count total number of neurons. […] To determine changes in necroptosis, we isolated proteins from neurons of the same four groups and measured the levels of total and phosphorylated MLKL by western blot.
(§2) Primary neuronal cultures—For the GFP experiments: Primary neurons were isolated from APP/PS1 and NonTg Po pups. The tissue was then dissociated in Neurobasal media (Thermo Fisher Scientific) and spun down for 3 minutes at 5,000 g at 4° C. The supernatant was discarded and the pellet was re-suspended in 1 ml of Neurobasal media supplemented with B27 (Thermo Fisher Scientific). […] Neurons were treated for a total of 15 days and the GFP fluorescence was measured every 4 days. […] All fluorescent measurements (excitation 488 nm, emission 509 nm) were performed using the Synergy HT multi-mode microplate reader with the Gen5 software (BioTek, Winooski, Vt.). The reader was pre-heated to 37° C. to maintain optimal conditions for the neurons during the measurements. […]

[2] = system: primary cortical neurons from wild type littermate mice; experiment: NeuN count of wild type primary cortical neurons treated with Nec-1S or vehicle; type: cell-based, mouse; details: 10 μM at DIV 7 and DIV 11
Method: as §1, §2

For `CN1C(=O)NC(Cc2c[nH]c3c(Cl)cccc23)C1=O` (stereo not drawn) [Nec1S, 5-((7-chloro-1 H-indol-3-yl)methyl)-3-methylimidazolidine-2,4-dione], the “number of NeuN-positive neurons” value ([1]; DIV 15, 10 μM at DIV 7 and DIV 11, APP/PS1-Nec1S vs APP/PS1-veh and WT groups) was “more neurons than the APP/PS1-veh group, and as many neurons as both WT groups”, the “in vitro cell death of APP/PS1 primary cortical neurons” value ([1]; overall conclusion of the two independent experiments (NeuN and GFP), 10 μM) was “reduces the accelerated in vitro cell death of APP/PS1 primary cortical neurons” and the “decrease in the number of wild type neurons” value [2] was “did not significantly affect the decrease in the number of wild type neurons”.
